These compounds were tested on Dirofilaria immitis (assay: Effect test on Dirofilaria immitis (larval motility inhibition)). Conditions: 168 h, read-out: motility inhibition rate.

SMILES | inhibition at 100 µM
CCC1(c2ccc(C(F)(F)F)cc2)CN(C)C(=O)C(=C(Nc2ccc(F)cc2)Nc2ccc(F)nc2)C1=O (stereo not drawn) [3-9] | ≥ 50%
CNC(Nc1ccc(F)cc1)=C1C(=O)CN(c2cnc(C#N)c(Cl)c2)N(C)C1=O [6-44] | ≥ 50%
O=C1CC(c2ccc(C(F)(F)F)nc2)CC(=O)C1=C(Nc1ccc(F)nc1)Nc1ccc(F)nc1 (stereo not drawn) [1-8] | ≥ 50%
CCOC(=O)N1C(=O)C(=C(NC)Nc2ccc(F)c(F)c2)C(=O)CN1c1ccc(C#N)c(F)c1 [6-29] | ≥ 50%
CCC1(c2ccc(C(F)(F)F)cc2)CN(C)C(=O)C(=C(Nc2ccc(F)nc2)Nc2ccc(F)nc2)C1=O (stereo not drawn) [3-10] | ≥ 50%
O=C1CC(c2ccc(C(F)(F)F)cc2)C(c2ccccn2)C(=O)C1=C(Nc1ccc(F)cc1)Nc1ccc(F)nc1 (stereo not drawn) [1-73] | ≥ 50%
CNC(Nc1ccc(F)cc1)=C1C(=O)CN(c2ccccc2)N(c2ccccc2)C1=O [6-35] | ≥ 50%
O=C1CC(c2ccc(C(F)(F)F)cc2)CC(=O)C1=C(Nc1ccc(F)cc1)NC1CC1 (stereo not drawn) [1-36] | ≥ 50%
Cn1nc(-c2ccccc2)c(C2CC(=O)C(=C(Nc3ccc(F)cc3)Nc3ccc(F)nc3)C(=O)C2)c1Cl (stereo not drawn) [1-79] | ≥ 50%
CNC(Nc1ccc(F)nc1)=C1C(=O)CC(c2cc(OC(F)F)n(C)n2)NC1=O (stereo not drawn) [3-20] | ≥ 50%
CC1(C)C(=O)C(=C(Nc2ccc(F)nc2)Nc2ccc(F)nc2)C(=O)CC1c1ccc(Br)cn1 (stereo not drawn) [1-46] | ≥ 50%
O=C1CC(c2ccc(Cl)s2)CC(=O)C1=C(Nc1ccc(F)cn1)Nc1ccc(F)cn1 (stereo not drawn) [1-2] | ≥ 50%
O=C1CC(c2ccc(C(F)(F)F)cc2)CC(=O)C1=C(Nc1ccc(F)nc1)Nc1ccc(F)nc1 (stereo not drawn) [1-3] | ≥ 50%
CCC1(c2ccc(C(F)(F)F)nc2)CN(C)C(=O)C(=C(Nc2ccc(F)nc2)SC)C1=O (stereo not drawn) [9-37] | ≥ 50%
O=C1CCC(CC(F)(F)F)C(=O)C1=C(Nc1ccc(F)cc1)Nc1ccc(F)nc1 (stereo not drawn) [1-54] | ≥ 50%
CNC(NC)=C1C(=O)CC(c2ccco2)CC1=O (stereo not drawn) [1-11] | ≥ 50%
O=C1CC(c2ccc(Br)cn2)CC(=O)C1=C(Nc1ccnc(F)c1)Nc1ccnc(F)c1 (stereo not drawn) [1-7] | ≥ 50%
O=C1CC(c2ccc(C(F)(F)F)cc2)CC(=O)C1=C(NCc1ccc(OC(F)(F)F)cc1)Nc1ccc(F)cc1 (stereo not drawn) [1-14] | ≥ 50%
O=C1CCC(CC(F)(F)F)C(=O)C1=C(Nc1ccc(F)nc1)Nc1ccc(F)nc1 (stereo not drawn) [1-52] | ≥ 50%
O=C1CC(c2ccc(C(F)(F)F)nc2)OC(=O)C1=C(Nc1ccnc(F)c1)Nc1ccnc(F)c1 (stereo not drawn) [2-1] | ≥ 50%
CCC1(c2ccc3ccccc3n2)CN(C)C(=O)C(=C(Nc2ccc(F)nc2)SC)C1=O (stereo not drawn) [9-38] | ≥ 50%
CCOC(=O)N1C(=O)C(=C(NCc2cccc(F)c2)Nc2cccc(F)c2)C(=O)CN1c1ccc(C#N)c(Cl)c1 [6-31] | ≥ 50%
O=C1CC(c2ccc(C(F)(F)F)nc2)OC(=O)C1=C(Nc1ccc(F)cn1)Nc1ccc(F)cn1 (stereo not drawn) [2-2] | ≥ 50%
O=C1CC(c2ccc(C(F)(F)F)cc2)C(c2ccncc2)C(=O)C1=C(Nc1ccc(F)nc1)Nc1ccc(F)nc1 (stereo not drawn) [1-72] | ≥ 50%
O=C1CC(c2ccc(Br)cn2)CC(=O)C1=C(Nc1ccc(F)cn1)Nc1ccc(F)cn1 (stereo not drawn) [1-5] | ≥ 50%
O=C1CC(c2ccc(C(F)(F)F)cc2)CC(=O)C1=C(NCc1ccc(F)cc1)Nc1ccc(F)cc1 (stereo not drawn) [1-34] | ≥ 50%
CNC(Nc1ccc(F)cc1)=C1C(=O)CC(c2ccc(C(F)(F)F)cc2)N(C)C1=O (stereo not drawn) [compound No. 3-1, 3-(((4-fluorophenyl)amino) (methylamino)methylene)-1-methyl-6-(4-(trifluoromethyl)phenyl)piperidine-2,4-dione] | ≥ 50%

SMILES | inhibition at 100 µM
CNC(Nc1ccn(C)n1)=C1C(=O)CC(c2ccc(C(F)(F)F)cc2)CC1=O (stereo not drawn) [1-117] | ≥ 50%
CNC(Nc1ccc(F)nc1)=C1C(=O)CC(c2ccc(C(F)(F)F)cc2)CC1=O (stereo not drawn) [1-56] | ≥ 50%
CSC(Nc1ccc(F)nc1)=C1C(=O)CCN(c2ccc(C(F)(F)F)cc2)C1=O [9-34] | ≥ 50%
Cn1nc(-c2ccccc2)c(C2CC(=O)C(=C(Nc3ccc(F)cc3)Nc3ccc(F)cc3)C(=O)C2)c1Cl (stereo not drawn) [1-80] | ≥ 50%
CN(C)CCNC(NCCN(C)C)=C1C(=O)CC(c2ccc(C(F)(F)F)cc2)CC1=O (stereo not drawn) [1-42] | ≥ 50%
O=C1CC(c2ccc(Br)cn2)CC(=O)C1=C(Nc1ccc(F)nc1)Nc1ccc(F)nc1 (stereo not drawn) [1-6] | ≥ 50%
O=C1CC(c2ccc(C(F)(F)F)cc2)CC(=O)C1=C(NCCBr)Nc1ccc(F)cc1 (stereo not drawn) [1-27] | ≥ 50%
CC1(C)C(=O)C(=C(Nc2ccnc(F)c2)Nc2ccnc(F)c2)C(=O)CC1c1ccc(Br)cn1 (stereo not drawn) [1-47] | ≥ 50%
O=C1CC(c2ccc(C(F)(F)F)cc2)CC(=O)C1=C(Nc1ccc(F)cc1)Nc1ccc(F)cc1 (stereo not drawn) [compound No. 1-9, 2-(bis((4-fluorophenyl)amino)methylene)-5-(4-(trifluoromethyl)phenyl)cyclohexane-1,3-dione] | ≥ 50%
CNC(Nc1ccc(F)cc1)=C1C(=O)CCCN(c2ccc(C(F)(F)F)cc2)C1=O [5-2] | ≥ 50%
CCC1(c2ccc(C(F)(F)F)cc2)CN(C)C(=O)C(=C(NC)Nc2ccc(F)nc2)C1=O (stereo not drawn) [3-8] | ≥ 50%
O=C1CC(c2ccc(Cl)s2)CC(=O)C1=C(Nc1ccc(F)nc1)Nc1ccc(F)nc1 (stereo not drawn) [1-49] | ≥ 50%
COc1ncccc1NC(Nc1cccnc1OC)=C1C(=O)CC(c2ccc(C(F)(F)F)cc2)CC1=O (stereo not drawn) [1-118] | ≥ 50%
O=C1CC(c2ccc(C(F)(F)F)cc2)CC(=O)C1=C(Nc1ccnc(F)c1)Nc1ccnc(F)c1 (stereo not drawn) [1-4] | ≥ 50%
CCC1(c2ccc(C(F)(F)F)nc2)CN(C)C(=O)C(=C(NC)Nc2ccc(F)cc2)C1=O (stereo not drawn) [compound No. 3-2] | ≥ 50%
CNC(Nc1ccc(F)cc1)=C1C(=O)CN(c2ccc(C#N)nc2)N(Cc2ccccc2)C1=O [6-27] | ≥ 50%
O=C1CC(c2ccc(C(F)(F)F)cc2)CC(=O)C1=C(Nc1ccc(F)cc1)Nc1cnccn1 (stereo not drawn) [1-64] | ≥ 50%
CNC(Nc1ccc(F)cc1)=C1C(=O)CC(c2c(-c3ccccc3)nn(C)c2Cl)CC1=O (stereo not drawn) [1-82] | ≥ 50%
CNC(Nc1ccc(F)nc1)=C1C(=O)CC(c2ccc(C(F)(F)F)cc2)C(c2ccccn2)C1=O (stereo not drawn) [1-70] | ≥ 50%
CNC(Nc1ccc(F)cc1)=C1C(=O)CN(c2cnc(C#N)c(OC)c2)N(C(=O)OC)C1=O [6-21] | ≥ 50%
O=C1CC(c2cnc(Cl)c(Br)c2)NC(=O)C1=C(Nc1ccc(F)cc1)Nc1ccc(F)nc1 (stereo not drawn) [3-43] | ≥ 50%
COCCNC(Nc1ccc(F)cc1)=C1C(=O)CC(c2ccc(C(F)(F)F)cc2)CC1=O (stereo not drawn) [1-25] | ≥ 50%
CNC(Nc1ccc(F)cc1)=C1C(=O)CC(c2ccc(C(F)(F)F)cc2)CC1=O (stereo not drawn) [1-57] | ≥ 50%
Cc1cc(NC(Nc2ccc(F)cc2)=C2C(=O)CC(c3ccc(C(F)(F)F)cc3)CC2=O)no1 (stereo not drawn) [1-15] | ≥ 50%
CSC(Nc1ccc(F)nc1)=C1C(=O)CC(c2ccc(Br)s2)NC1=O (stereo not drawn) [9-33] | ≥ 50%
O=C1CC(c2ccc(C(F)(F)F)cc2)CC(=O)C1=C(NCc1ccccn1)Nc1ccc(F)cc1 (stereo not drawn) [1-19] | ≥ 50%
COCCNC(NCCOC)=C1C(=O)CC(c2ccc(C(F)(F)F)cc2)CC1=O (stereo not drawn) [1-29] | ≥ 50%
